Test results published in US20010056104A1, “Treatment of ocular hypertension and glaucoma” (priority 2000, published 2001).
Like-named read-outs stand apart in the source and are kept apart here. Each block holds one compound with its values, some of them ahead of it.

Assays:
[1] = target: FP-receptor (Felis catus, UniProt A0ABI7XJ69); assay: Functional FP-receptor study, cat iris sphincter muscle contraction; format: cell-based; conditions: for EC50: text restating Table I, read-out: concentration needed to stimulate the FP-receptor at 50% efficacy
Method: Functional FP-receptor studies were performed using iris sphincter muscles from cat eyes. The eyes were either used directly after enucleation or stored in ice cold saline overnight. The iris sphincter muscles were prepared, cut in halfs, and mounted in thermostated (37° C.) tissue baths with oxygenated modified Kreb's solution containing indomethacin (2.8×10^−6 M), atropine (10^−7 M) and propranolol (10^−7 M). A resting tension of 150 mg was applied, and the contractile force was measured isometrically after cumulative dosing of test compounds. A manual or automated tissue bath system (Buxco, STC 400) was used for the experiments. For each tissue sample the maximal response was normalized to 100%. The mean response of two to four different preparations was calculated.
(§1) Concentration-effect curves were fitted to the data using the logistic sigmoid function.

[2] = target: T1, EP1-receptor (Bos taurus, UniProt F1MUY4); assay: EP1-receptor activity, bovine iris sphincter muscle; format: cell-based
T1 sequence (F1MUY4 1-407): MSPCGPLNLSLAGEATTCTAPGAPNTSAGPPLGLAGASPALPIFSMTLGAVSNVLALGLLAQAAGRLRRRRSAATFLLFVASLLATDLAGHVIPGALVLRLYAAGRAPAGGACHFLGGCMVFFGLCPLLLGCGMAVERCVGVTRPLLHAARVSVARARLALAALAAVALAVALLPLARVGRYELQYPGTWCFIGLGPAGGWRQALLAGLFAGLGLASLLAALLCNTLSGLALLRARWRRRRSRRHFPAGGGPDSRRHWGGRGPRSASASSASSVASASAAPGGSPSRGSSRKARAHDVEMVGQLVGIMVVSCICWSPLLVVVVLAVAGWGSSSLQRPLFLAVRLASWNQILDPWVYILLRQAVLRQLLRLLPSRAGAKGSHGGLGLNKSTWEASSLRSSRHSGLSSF
Text: Iris sphincter muscles from bovine eyes were used for studies of EP1-receptor responses. Freshly enucleated bovine eyes were transported on ice from a slaughterhouse.
as §1

[3] = target: EP2-receptors (Cavia porcellus, UniProt A0A286XDB1); assay: EP2-receptor activity, guinea-pig ileum twitch inhibition; format: cell-based; conditions: for EC50: smooth muscle bath, guinea-pig ileum
Text: Segments of guinea-pig ileum were used to study the effect on EP2-receptors. Male guinea pigs were killed with a blow to the head and bled from the carotid arteries. Circular rings (2-3 mm wide) were taken from the ileum about 10 cm from the caecum, A resting tension of 1 g was applied and the preparation was stimulated by using a Gras S88 stimulator delivering trains of square pulses (frequency 7.5 Hz, pulse duration 0.1 msec, train duration 4 sec) to two parallel platinum electrodes in the bath. The voltage over the electrodes was approximately 20V, and the interval between trains was 100 seconds. The peak contractile force at each stimulation train was measured. Test compounds were added cumulatively, and the inhibitory effect on the muscle twitch was evaluated. […] Concentration-effect curves were fitted to the data using the logistic sigmoid function.

[4] = target: T2, EP3-receptors (Cavia porcellus, UniProt A0A286XLZ9); assay: EP3-receptor activity, guinea-pig vas deferens; format: cell-based; conditions: for EC50: smooth muscle bath, guinea-pig vas deferens
T2 sequence (A0A286XLZ9 with tags, fused parts or gaps): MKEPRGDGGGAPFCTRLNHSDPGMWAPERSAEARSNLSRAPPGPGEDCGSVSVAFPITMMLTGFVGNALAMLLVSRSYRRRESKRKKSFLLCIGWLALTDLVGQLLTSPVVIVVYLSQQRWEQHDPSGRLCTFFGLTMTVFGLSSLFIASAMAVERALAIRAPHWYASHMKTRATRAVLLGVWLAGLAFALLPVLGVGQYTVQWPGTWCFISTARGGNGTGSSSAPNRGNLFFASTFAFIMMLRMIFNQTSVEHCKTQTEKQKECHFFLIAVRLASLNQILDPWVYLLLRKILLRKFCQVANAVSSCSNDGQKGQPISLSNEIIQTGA
Method: Guinea-pig vas deferens was used to assess the effect on EP3-receptors. Tissue segments of about 10 mm were mounted in tissue baths and the experiments were performed essentially in the same way as described for the guinea-pig circular ileum. Concentration-effect curves were fitted to the data using the logistic sigmoid function.

[5] = tested on: prostaglandin receptor sites in bovine corpus luteal membranes; assay: Ligand binding assay in bovine corpus luteal membranes; conditions: for displacement of bound 3H-unoprostone isopropyl by unlabeled competing ligand: competition studies; for binding to PG receptor sites: in words
Method: (§2) In ligand binding studies, the specificity of labeled unoprostone isopropyl and the metabolite binding to prostaglandin receptor sites in bovine corpus luteal membranes was determined. This tissue expresses most of the PG receptors including an abundance of FP receptors. In signal transduction studies, the mobilization of intracellular calcium using Fluorescence Imaging technique in the primary culture of human ciliary muscle cells and cyclic AMP generation in rabbit iris-ciliary body was measured.
This method is well described in the literature. […] Free unbound ligands were separated by rapid filtration using a millipore filtration assembly. Membrane bound radioactivity retained by the filter was counted. It is important to define the following terms for appreciation of the binding data:
Total binding is defined as the amount bound in the absence of unlabeled ligand.
Specific binding is defined as the binding displaced by unlabeled ligand.
Non-specific binding is the binding not displaced by unlabeled ligand.

[6] = treated for about three or more months; cited from earlier work
[7] = cynomolgus monkeys; cited from earlier work
[8] = target: FP receptor (Homo sapiens, UniProt P43088); conditions: background statement; cited from earlier work
[9] = tested on: human ciliary muscle cells; assay: Intracellular calcium mobilization (Fura 2-AM) in human ciliary muscle cells; format: cell-based; conditions: for affinity for EP1 or FP or TP receptors: suggested by inability to mobilize intracellular calcium
Method: as §2
Human ciliary muscle cells at confluency were loaded with Fura 2-AM. Cells in a petri dish were put in a jacketed chamber mounted on the microscope platform. The chamber was maintained at 37° C. by thermostatically controlled water circulating through the chamber jacket. The cells were then exposed to the excitation wavelengths of 334 and 380 nm with an emission wavelength of 510 nm. Cells were perfused with HEPES buffer with or without test compounds. The intracellular calcium was visualized and photographed using Attofluor RatioVision software program and Zeiss fluorescence microscope.

[10] = long-term monkey trial, preliminary published results; cited from earlier work
[11] = tested on: PGF2α receptors; conditions: free acid form; contraction of cat iris sphincter; cited from earlier work
[12] = target: T3, PGF2α receptors (Bos taurus, UniProt P37289); conditions: free acid form; bovine corpus luteum; cited from earlier work
T3 construct: host or cells: bovine corpus luteum

[13] = competing ligand PGF2α 0.062 μM
[14] = radioligand conc. 8.0 nM (3H-PGF2α)
[15] = competing ligand unoprostone isopropyl 2.5 μM
[16] = competing ligand unoprostone isopropyl 5.0 μM
[17] = competing ligand unoprostone isopropyl 8.0 μM
[18] = competing ligand unoprostone isopropyl 16.0 μM
[19] = concentrations ranging from 10-1000 nM

Chain of EP2-receptors (A0A286XDB1 1-359): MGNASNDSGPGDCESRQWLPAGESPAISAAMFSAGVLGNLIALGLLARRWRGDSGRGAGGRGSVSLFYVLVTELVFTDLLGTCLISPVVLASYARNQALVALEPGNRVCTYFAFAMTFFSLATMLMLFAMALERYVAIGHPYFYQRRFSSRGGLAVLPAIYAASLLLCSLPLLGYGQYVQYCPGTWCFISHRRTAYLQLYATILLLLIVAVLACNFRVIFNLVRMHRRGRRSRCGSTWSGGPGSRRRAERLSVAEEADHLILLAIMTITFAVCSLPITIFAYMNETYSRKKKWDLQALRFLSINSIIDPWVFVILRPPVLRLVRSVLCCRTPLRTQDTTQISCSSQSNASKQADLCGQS
Chain of FP-receptor (A0ABI7XJ69 entry or part of it): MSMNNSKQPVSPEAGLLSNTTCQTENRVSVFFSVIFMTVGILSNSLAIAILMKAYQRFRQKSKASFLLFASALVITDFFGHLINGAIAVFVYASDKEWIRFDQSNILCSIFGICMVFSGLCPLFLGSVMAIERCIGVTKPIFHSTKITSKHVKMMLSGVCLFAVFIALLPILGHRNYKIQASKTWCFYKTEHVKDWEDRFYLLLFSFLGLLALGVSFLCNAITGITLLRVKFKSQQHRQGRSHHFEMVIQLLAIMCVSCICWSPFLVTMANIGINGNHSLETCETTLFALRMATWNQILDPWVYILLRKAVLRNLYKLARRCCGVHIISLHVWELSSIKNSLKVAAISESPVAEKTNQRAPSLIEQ
T3 sequence (P37289 whole entry): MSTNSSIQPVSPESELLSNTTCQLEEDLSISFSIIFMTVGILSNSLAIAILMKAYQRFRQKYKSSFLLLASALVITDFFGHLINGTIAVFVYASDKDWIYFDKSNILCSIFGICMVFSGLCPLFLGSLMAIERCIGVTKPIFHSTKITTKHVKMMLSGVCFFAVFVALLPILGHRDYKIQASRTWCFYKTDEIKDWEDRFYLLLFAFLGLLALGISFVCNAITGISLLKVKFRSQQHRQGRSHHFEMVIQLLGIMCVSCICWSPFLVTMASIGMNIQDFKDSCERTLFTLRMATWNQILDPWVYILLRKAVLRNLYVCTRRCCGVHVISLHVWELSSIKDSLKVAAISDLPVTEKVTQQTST
Chain of FP receptor (P43088 whole entry): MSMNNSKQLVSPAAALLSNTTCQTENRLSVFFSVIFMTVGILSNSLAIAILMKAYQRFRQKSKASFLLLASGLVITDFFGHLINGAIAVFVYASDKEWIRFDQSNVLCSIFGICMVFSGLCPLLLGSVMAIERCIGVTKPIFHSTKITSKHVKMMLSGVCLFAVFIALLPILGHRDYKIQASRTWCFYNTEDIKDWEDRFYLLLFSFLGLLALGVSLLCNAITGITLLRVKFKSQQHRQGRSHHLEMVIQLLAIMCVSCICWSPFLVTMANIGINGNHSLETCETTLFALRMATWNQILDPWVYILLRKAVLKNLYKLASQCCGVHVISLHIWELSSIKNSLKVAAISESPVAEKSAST

- displacement of bound 3H-unoprostone isopropyl by unlabeled competing ligand [5]: did not displace
Compound: CCCCC[C@H](O)/C=C/[C@@H]1[C@@H](C/C=C\CCCC(=O)O)[C@H]2CO[C@@H]1C2 [U46619]

- specific binding to bovine corpus luteal membranes (in words) [5]: no specific binding sites
- Total Binding ([5]; at 5 minutes): 21.0 fmoles/mg protein
- Specific Binding of 3H-unoprostone isopropyl [5, 15]: 0
- Total 3H-unoprostone isopropyl binding [5, 15]: 7.0 ƒmoles/mg protein
- Specific Binding of 3H-unoprostone isopropyl [5, 16]: 0
- Total 3H-unoprostone isopropyl binding [5, 16]: 6.5 ƒmoles/mg protein
- Specific Binding of 3H-unoprostone isopropyl [5, 17]: 0
- Total 3H-unoprostone isopropyl binding [5, 17]: 6.7 ƒmoles/mg protein
- Specific Binding of 3H-unoprostone isopropyl [5, 18]: 0
- Total 3H-unoprostone isopropyl binding [5, 18]: 7.6 ƒmoles/mg protein
- displacement of bound 3H-unoprostone isopropyl by unlabeled competing ligand [5]: did not displace
- binding to DP, EP1, EP2, EP3, IP and TP receptor sites ([5]; concluded from competition studies): does not bind
- binding to PG receptor sites [5]: does not bind
- specific binding to bovine corpus luteal membranes (in words) ([5]; listed as 3H-unoprostone isopropyl): no specific binding
- Total Binding ([5]; membrane protein conc. 50 μg): 13.0 ± 2.0 (3) fmoles/mg protein
- Total Binding ([5]; membrane protein conc. 100 μg): 23.0 ± 6.0 (3) fmoles/mg protein
- Total Binding ([5]; membrane protein conc. 200 μg): 32.0 ± 8.0 (3) fmoles/mg protein
- Specific Binding ([5]; radioligand conc. 8.0 nM): 0 fmoles/mg protein
- Total Binding ([5]; radioligand conc. 8.0 nM): 19.4 ± 2.0 ƒmoles/mg protein
- Specific Binding ([5]; radioligand conc. 16.0 nM): 0 fmoles/mg protein
- Total Binding ([5]; radioligand conc. 16.0 nM): 25.5 ± 4.0 ƒmoles/mg protein
- Specific Binding ([5]; radioligand conc. 32.0 nM): 0 fmoles/mg protein
- Total Binding ([5]; radioligand conc. 32.0 nM): 40.0 ± 7.0 ƒmoles/mg protein
- change of total binding with time ([5]; up to 60 minutes): did not increase with time
Compound: CCCCCCCC(=O)CC[C@@H]1[C@@H](C/C=C\CCCC(=O)OC(C)C)[C@@H](O)C[C@H]1O [unoprostone isopropyl, 13,14-dihydro-15-keto-20-ethyl PGF2α isopropyl ester]
- mobilization of intracellular calcium [9, 19]: did not mobilize
- affinity for EP1 or FP or TP receptors [9]: no affinity
- iridic pigmentation [10]: no iridic pigmentation

- displacement of bound 3H-unoprostone isopropyl by unlabeled competing ligand [5]: did not displace
Compound: CC#CCC(C)[C@H](O)/C=C/[C@@H]1[C@H]2C/C(=C/CCCC(=O)O)C[C@H]2C[C@H]1O (stereo partly shown) [iloprost]

- binding to PG receptor sites [5]: does not bind
Compound: CCCCCCCC(=O)CC[C@@H]1[C@@H](C/C=C\CCCC(=O)O)[C@@H](O)C[C@H]1O [metabolite]
- mobilization of intracellular calcium [9, 19]: did not mobilize
- affinity for EP1 or FP or TP receptors [9]: no affinity
- agonistic activity to PGF2α receptors relative to PGF2α [11]: 1/1600
- binding inhibitory activity relative to PGF2α [12]: 1/280

The remaining lines, values behind:

Compound: O=C(O)CCCC=CCC1C(O)CC(O)C1CCC(=O)CCc1ccccc1 (stereo not shown) [15-keto Latanoprost Acid]
- potency on the FP receptor relative to latanoprost acid ([1]; from Table I EC50 values): at least ten times less potent
- EC50 [1]: 0.26 µM
- activity on EP1 receptor ([2]; in words): virtually no activity
- EC50 ([2]; read-out: EC50 EP1, smooth muscle bath, bovine iris sphincter): 28 µM
- activity on EP2 receptor ([3]; in words): virtually no activity
- EC50 [3]: > 100 µM
- activity on EP3 receptor ([4]; in words): virtually no activity
- EC50 [4]: > 100 µM

Compound: CC(C)OC(=O)CCC/C=C\C[C@@H]1[C@@H](CC[C@@H](O)CCc2ccccc2)[C@H](O)C[C@@H]1O [Latanoprost, 13,14-dihydro-17-phenyl-18,19,20-trinor PGF2α isopropyl ester]
- receptor selectivity (FP vs other prostaglandin receptors) ([1]; from Table I): selective agonist for the FP receptor
- human patients with brown pigmentation of the iris [6]: ≥ 10%
- iridial pigmentation [7]: induced increased iridial pigmentation
- specific binding affinity for the FP receptor [8]: substantial specific binding affinity

Compound: O=C(O)CCC/C=C\C[C@@H]1[C@@H](/C=C/[C@@H](O)COc2cccc(C(F)(F)F)c2)[C@H](O)C[C@@H]1O (racemic) [Fluprostenol]
- mobilization of intracellular calcium ([9]; FP receptor agonist control, concentration not given): mobilized calcium

Compound: CCCCC[C@H](O)/C=C/[C@@H]1[C@@H](C/C=C\CCCC(=O)O)[C@@H](O)C[C@H]1O [PGF2α]
- specific binding to bovine corpus luteal membranes (in words) [5]: bound specifically
- Specific Binding (3H-PGF2α) [5, 13]: 0.07 fmoles/mg Protein
- Total 3H-PGF2α binding [5, 13]: 0.56 fmol/mg protein
- Specific Binding (3H-PGF2α) ([5]; competing ligand PGF2α 0.25 μM): 0.15 fmoles/mg Protein
- Total 3H-PGF2α binding ([5]; competing ligand PGF2α 0.25 μM): 0.56 fmol/mg protein
- Specific Binding (3H-PGF2α) ([5]; competing ligand PGF2α 0.5 μM): 0.25 fmoles/mg Protein
- Total 3H-PGF2α binding ([5]; competing ligand PGF2α 0.5 μM): 0.56 fmol/mg protein
- Specific Binding (3H-PGF2α) ([5]; competing ligand PGF2α 8.0 μM): 0.42 fmoles/mg Protein
- Total 3H-PGF2α binding ([5]; competing ligand PGF2α 8.0 μM): 0.56 fmol/mg protein
- displacement of bound 3H-unoprostone isopropyl by unlabeled competing ligand [5]: did not displace
- Specific Binding ([5]; radioligand conc. 2.0 nM): 120.0 ± 15.0 fmoles/mg protein
- Total Binding ([5]; radioligand conc. 2.0 nM): 150.0 ± 16.0 fmoles/mg protein
- Total Binding ([5]; radioligand conc. 4.0 nM): 325.0 ± 25.0 fmoles/mg protein
- Specific Binding [5, 14]: 423.0 ± 40.0 fmoles/mg protein
- Total Binding [5, 14]: 505.0 ± 75.0 fmoles/mg protein

Compound: 17-Phenyl trinor PGE1
- displacement of bound 3H-unoprostone isopropyl by unlabeled competing ligand [5]: did not displace

Compound: O=C(O)CCC/C=C\C[C@@H]1[C@@H](CC[C@@H](O)CCc2ccccc2)[C@H](O)C[C@@H]1O [Latanoprost Acid]
- EC50 [1]: 0.01 µM
- EC50 [3]: 530 µM
- EC50 [4]: 28 µM

Compound: CCCCC[C@H](O)/C=C/[C@@H]1[C@@H](C/C=C\CCCC(=O)OC(C)C)[C@@H](O)C[C@H]1O [PGF2α-IE]
- iridial pigmentation [7]: induced increased iridial pigmentation

Compound: CCCCCC(O)C=CC1C(O)CC(=O)C1CC=CCCCC(=O)OC(C)C (stereo not shown) [PGE2-IE]
- iridial pigmentation [7]: induced increased iridial pigmentation

Compound: CCCC1([C@H](O)C/C=C/[C@H]2[C@H](O)CC(=O)[C@@H]2CCCCCCC(=O)OC)CCC1 [Butaprost]
- displacement of bound 3H-unoprostone isopropyl by unlabeled competing ligand [5]: did not displace

Compound: O=C(O)CCCCCCC1C(=O)NC(=O)N1CCC(O)C1CCCCC1 (stereo not shown) [BW245C]
- displacement of bound 3H-unoprostone isopropyl by unlabeled competing ligand [5]: did not displace
